Data published in paper PMC7774954, “Interactomic affinity profiling by holdup assay: Acetylation and distal residues impact the PDZome-binding specificity of PTEN phosphatase” (PLoS ONE, 2020).
*1 amine or outer side, *2 acyl side, *3 side chain or, on linkers, in order; H or OH if unused. Where a SMILES comes first, the peptide text is derived from it. The star is where a group is joined. X1 = O=C(CCCC[C@@H]1SC[C@@H]2NC(=O)N[C@@H]21)NCCCOCCOCCOCCCN*; Suc = O=C(CCC(=O)[*:2])[*:1]

Columns and labels:
human PDZome = assay: Promiscuity / specificity index from PDZome affinity profile (combined holdup and FP); assay type: binding; details: for Nb PDZ (BI): Val for BI=0.2; for Max Log(Kd): maximum over PDZome; for 1/2PDZ: number of PDZ, 1/2PDZ Min and Max; for number of PDZ domains above the half-maximal binding affinity: relative to number of tested and validated PDZ domains
Text: Using the mean concentration obtained above for each of the different PTEN peptides, the experimental BI values recorded by holdup for all tested domain/peptide pairs were subsequently transformed into equilibrium dissociation constants. […] Thereafter, affinity data measured by FP assay were also included in the […] for the PDZ domains (MAST1-1, MAST2-1, SNX27-1, MAGI1-2 and GRID2IP-2) for which holdup data were missing according to the low quality score in the filtering step. These interaction data detected only by competitive FP and not by holdup represented 1 to 2 additional PDZ binders per PTEN construct. […] This transformation into affinity values makes then possible to compare binding affinity profiles obtained for different peptides and potentially different batches.
The above described holdup-FP strategy delivers binding affinity constants, a universal chemical property. […] We then looked for a numerical parameter that would express, in a quantitative way, this specificity or promiscuity information. For this purpose, we calculated for each profile the difference between the maximal and the minimal significant affinity values detected by the assay, ΔGmax − ΔGmin. Next, we introduced a threshold affinity, called "half-maximal binding affinity" defined as follows: ΔGhalf = ΔGmin + (ΔGmax − ΔGmin)/2. […] Alternatively, the specificity index IS could be defined as 1 –IP. Therefore, the lower the promiscuity index, the higher the specificity index, the higher the specificity of the PBM for a limited number of selected domains across the PDZome.
We probed the specificity index on the PDZome-binding profiles of the four PTEN peptides. […] This would indicate, in qualitative terms, that the PTEN_13 peptide selects PDZ domains in a more specific -less promiscuous- way than that of the three of other peptides. […] One should note that it was not possible to determine index uncertainty by error propagation starting from holdup data, since BI values have been recorded in singlicate. However, the dispersion of log(KD) values around the perfect theoretical correlation line in the correlation plot (Fig 5B) is representative of global IS uncertainty, which was therefore estimated by averaging the distances between the experimental dots and the theoretical diagonal. Details about uncertainties and Fisher’s test calculations are provided in Supp. Materials and S1 File.
Uncertainty on IS was estimated according to several steps described below:
- Since it’s not possible strictly talking to propagate uncertainty for data recorded in singlicate, we considered that log(KD) uncertainty is contained in the correlation plot [log(KD,HU) vs. log(KD,FP)] when comparing the experimental data with the perfect theoretical correlation (the dotted diagonal line).
- Originally, we estimated the 1/2 PDZ index by counting the number of PDZ with a log(KD) value above the threshold calculated with the formulae developed in the manuscript. Then we did the same type of counting for [threshold value + log(KD) uncertainty] and for [threshold value - log(KD) uncertainty].
- From the difference in the two counts is estimated the index uncertainty.
Due to the low number of PDZ occurrences, a Fisher's exact test was preferred to estimate the p-value. Calculations were performed online with http://astatsa.com using default parameters.

MAGI1 PDZ 2 = target: T1, MAGI1 PDZ 2 (Homo sapiens, UniProt Q96QZ7); assay: Holdup assay, MAGI1-2; assay type: binding
T1 construct: made in house; host or cells: E. coli
T1 sequence (Q96QZ7 472-554 limits assumed): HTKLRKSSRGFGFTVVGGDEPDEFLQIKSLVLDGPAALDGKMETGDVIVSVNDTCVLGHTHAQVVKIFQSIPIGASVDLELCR
Experimental: (§1) The holdup assay was performed on a Tecan freedom Evo200 robot with 384-well plates in singlicate for the three 11-mer PTEN variants and the 13-mer PTEN peptide as described in [31, 32]. Briefly, prior to interaction assay, 2.5 μL of streptavidin resin was saturated in each well with 20 μL of biotinylated PBM peptides (42 μM) and then washed twice with an excess of free biotin, while the reference resin was incubated only with biotin. Right before the holdup experiment, the PDZ library was spiked with an internal standard of lysozyme. Then, the biotin- or PBM-saturated resin was incubated, each in a distinct well of a 384-well plate, with complete cell lysates diluted so that the concentration of the tag-PDZ present in the crude extract is adjusted at 4 μM. After a sufficient time to reach complex equilibrium (15 min.), a fast and mild filtration step is performed and the tag-PDZ concentrations were measured by capillary electrophoresis instrument (LabChip GXII, PerkinElmer, Massachusets, USA). Standard markers were used to convert migration time into molecular weight on the LabChip software and inappropriate molecular weight markers were corrected or excluded.
(§2) For filtered data, the BI was extracted with the following equation (Eq 1) that estimates the depleted fraction after superimposition of the sample and reference electropherograms: BI=Iref−Ilig/Iref (1) where Iref and Ilig are the intensities of the tag-PDZ peaks measured, for each PDZ domain/PBM peptide interaction pair, in the biotin reference and the PBM electropherograms, respectively.
BIs were transformed into dissociation constants (KD) using the following formula: KD=([PDZtot]−BI·[PDZtot])·([PBMtot]−BI·[PDZtot])/BI·[PDZtot] […] We systematically determined the KD constants for a subset of PDZ/PBM pairs by competitive FP. […] For each PBM, the average peptide concentration was calculated after outlier rejection based on the absolute distances from the median as compared to three times the standard deviation (3σ rule), with never more than 2 values rejected.

IL16-1 = assay: Holdup assay, IL16-1; assay type: binding, human
LNX1-3 = assay: Holdup assay, LNX1-3; assay type: binding, human
GRIP2-1 = assay: Holdup assay, GRIP2-1; assay type: binding, human
DLG4 PDZ 3 = target: T2, DLG4 PDZ 3 (Homo sapiens, UniProt P78352); assay: Holdup assay, DLG4-3; assay type: binding
T2 construct: made in house; host or cells: E. coli
T2 sequence (P78352 313-393 limits assumed): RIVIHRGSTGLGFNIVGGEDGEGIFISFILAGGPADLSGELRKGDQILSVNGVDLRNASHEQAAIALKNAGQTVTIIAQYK
Experimental: as §1, §2
BIs were transformed into dissociation constants (KD) using the following formula: KD=([PDZtot]−BI·[PDZtot])·([PBMtot]−BI·[PDZtot])/BI·[PDZtot] (2) where [PDZtot] and [PBMtot] correspond to the total concentrations of the PDZ domain (usually around 4 μM) and the PBM peptide used during the assay. Since the PBMtot concentration in the resin during the holdup assay parameter may differ from one peptide to another and remains unknown, it is impossible to directly convert BI values into KD constants. We systematically determined the KD constants for a subset of PDZ/PBM pairs by competitive FP. […] For each PBM, the average peptide concentration was calculated after outlier rejection based on the absolute distances from the median as compared to three times the standard deviation (3σ rule), with never more than 2 values rejected.

CNKSR3-1 = assay: Holdup assay, CNKSR3-1; assay type: binding, human
MPDZ-11 = MPDZ-11 (Homo sapiens, UniProt O75970); assay: Holdup assay, MPDZ-11; assay type: binding
Chain of MPDZ-11 (O75970 whole entry): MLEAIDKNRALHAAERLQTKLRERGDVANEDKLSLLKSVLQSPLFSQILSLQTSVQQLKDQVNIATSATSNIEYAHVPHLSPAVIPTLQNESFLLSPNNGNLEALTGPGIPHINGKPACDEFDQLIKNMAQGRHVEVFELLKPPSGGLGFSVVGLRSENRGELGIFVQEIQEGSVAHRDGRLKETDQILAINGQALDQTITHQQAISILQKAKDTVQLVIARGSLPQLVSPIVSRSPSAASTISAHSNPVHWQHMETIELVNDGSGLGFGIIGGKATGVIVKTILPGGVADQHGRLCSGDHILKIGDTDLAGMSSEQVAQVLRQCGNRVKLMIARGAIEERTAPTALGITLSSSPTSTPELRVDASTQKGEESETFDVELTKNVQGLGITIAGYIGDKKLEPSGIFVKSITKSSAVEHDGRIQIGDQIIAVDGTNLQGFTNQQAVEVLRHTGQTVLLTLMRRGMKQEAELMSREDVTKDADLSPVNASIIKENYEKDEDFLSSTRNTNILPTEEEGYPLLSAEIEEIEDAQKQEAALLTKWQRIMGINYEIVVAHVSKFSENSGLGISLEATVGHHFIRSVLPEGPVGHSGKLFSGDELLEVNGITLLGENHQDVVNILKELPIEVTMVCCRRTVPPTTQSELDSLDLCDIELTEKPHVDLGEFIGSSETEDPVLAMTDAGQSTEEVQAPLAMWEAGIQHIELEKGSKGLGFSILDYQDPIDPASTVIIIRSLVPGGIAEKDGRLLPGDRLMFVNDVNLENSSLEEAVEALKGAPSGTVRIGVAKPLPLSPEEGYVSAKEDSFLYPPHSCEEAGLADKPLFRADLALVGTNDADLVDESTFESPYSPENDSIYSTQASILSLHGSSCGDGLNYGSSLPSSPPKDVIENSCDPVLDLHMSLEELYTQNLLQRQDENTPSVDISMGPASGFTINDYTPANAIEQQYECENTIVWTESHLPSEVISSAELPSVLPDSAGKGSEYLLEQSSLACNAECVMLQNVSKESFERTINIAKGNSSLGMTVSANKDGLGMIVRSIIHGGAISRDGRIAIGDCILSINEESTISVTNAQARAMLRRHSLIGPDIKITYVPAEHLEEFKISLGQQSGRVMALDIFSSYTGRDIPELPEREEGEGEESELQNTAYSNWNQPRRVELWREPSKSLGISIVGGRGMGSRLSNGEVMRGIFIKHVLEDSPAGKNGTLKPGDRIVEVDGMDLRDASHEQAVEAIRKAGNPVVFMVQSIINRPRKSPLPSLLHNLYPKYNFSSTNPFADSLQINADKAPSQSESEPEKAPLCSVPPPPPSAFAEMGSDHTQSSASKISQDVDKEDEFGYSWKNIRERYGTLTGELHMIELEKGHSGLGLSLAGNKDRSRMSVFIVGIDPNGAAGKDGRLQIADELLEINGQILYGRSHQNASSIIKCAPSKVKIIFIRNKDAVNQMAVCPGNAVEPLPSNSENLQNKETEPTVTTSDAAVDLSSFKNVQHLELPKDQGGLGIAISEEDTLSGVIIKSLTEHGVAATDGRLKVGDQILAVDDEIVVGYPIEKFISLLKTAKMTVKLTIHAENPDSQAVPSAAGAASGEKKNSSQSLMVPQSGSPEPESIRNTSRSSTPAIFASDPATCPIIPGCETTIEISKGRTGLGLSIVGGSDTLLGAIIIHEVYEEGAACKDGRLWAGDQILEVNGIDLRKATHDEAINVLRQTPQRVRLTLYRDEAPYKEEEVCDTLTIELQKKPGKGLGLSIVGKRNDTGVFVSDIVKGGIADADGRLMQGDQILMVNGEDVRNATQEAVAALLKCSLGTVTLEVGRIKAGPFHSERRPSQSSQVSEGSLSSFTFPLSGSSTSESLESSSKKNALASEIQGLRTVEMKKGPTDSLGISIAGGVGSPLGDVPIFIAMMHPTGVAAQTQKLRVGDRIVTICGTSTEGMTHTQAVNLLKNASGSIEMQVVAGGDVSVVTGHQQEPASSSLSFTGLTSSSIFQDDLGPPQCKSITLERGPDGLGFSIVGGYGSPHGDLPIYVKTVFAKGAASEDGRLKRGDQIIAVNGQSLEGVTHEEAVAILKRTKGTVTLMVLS

DLG5-4 = assay: Holdup assay, DLG5-4; assay type: binding, human
GRID2IP-1 = assay: Holdup assay, GRID2IP-1; assay type: binding, human
DVL2-1 = assay: Holdup assay, DVL2-1; assay type: binding, human

Structure (SMILES) | Nb PDZ (BI) (human PDZome) | Max Log(Kd) (human PDZome) | 1/2PDZ (human PDZome) | number of PDZ domains above the half-maximal binding affinity (human PDZome) | BI (MAGI1 PDZ 2) | BI (IL16-1) | LogKD (IL16-1) | BI (LNX1-3) | LogKD (LNX1-3) | BI (GRIP2-1) | LogKD (GRIP2-1) | BI (DLG4 PDZ 3) | BI (CNKSR3-1) | BI (MPDZ-11) | LogKD (MPDZ-11) | BI (DLG5-4) | LogKD (DLG5-4) | BI (GRID2IP-1) | LogKD (GRID2IP-1) | BI (DVL2-1) | other results
CC[C@H](C)[C@H](NC(=O)[C@H](CCC(N)=O)NC(=O)[C@@H](NC(=O)[C@H](Cc1c[nH]cn1)NC(=O)[C@H](CCC(N)=O)NC(=O)[C@H](CC(=O)O)NC(=O)[C@H](CCC(=O)O)NC(=O)[C@H](CC(=O)O)NC(=O)CCC(=O)NCCCOCCOCCOCCCNC(=O)CCCC[C@@H]1SC[C@@H]2NC(=O)N[C@@H]21)[C@@H](C)O)C(=O)N[C@H](C(=O)N[C@@H](CCCCN)C(=O)N[C@H](C(=O)O)C(C)C)[C@@H](C)O [PTEN_11] | 19 | 4.90 | 9 | 9 | 0.077 | -0.017 | 3.519 | -0.02 | 3.519 | -0.003 | 3.519 | -0.018 | 0.028 | 0.021 | 3.519 | -0.07 | 3.519 | -0.012 | 3.519 | -0.008 | LogKD (CNKSR3-1): 3.519; LogKD (DVL2-1): 3.519
CC[C@H](C)[C@H](NC(=O)[C@H](CCC(N)=O)NC(=O)[C@@H](NC(=O)[C@H](Cc1c[nH]cn1)NC(=O)[C@H](CCC(N)=O)NC(=O)[C@H](CC(=O)O)NC(=O)[C@H](CCC(=O)O)NC(=O)[C@H](CC(=O)O)NC(=O)CCC(=O)NCCCOCCOCCOCCCNC(=O)CCCC[C@@H]1SC[C@@H]2NC(=O)N[C@@H]21)[C@@H](C)O)C(=O)N[C@H](C(=O)N[C@@H](CCCCNC(C)=O)C(=O)N[C@H](C(=O)O)C(C)C)[C@@H](C)O [PTEN_Ac] | 43 |  | 12 | 12 | 0.101 | 0.039 | 3.605 | 0.072 | 3.605 | -0.038 | 3.605 | -0.024 |  | 0.145 |  | -0.1 | 3.605 | -0.067 | 3.605 |  | 
CC[C@H](C)[C@H](NC(=O)[C@H](CCC(N)=O)NC(=O)[C@@H](NC(=O)[C@H](Cc1c[nH]cn1)NC(=O)[C@H](CCC(N)=O)NC(=O)[C@H](CC(=O)O)NC(=O)[C@H](CCC(=O)O)NC(=O)[C@H](CC(=O)O)NC(=O)[C@H](Cc1ccccc1)NC(=O)[C@@H]1CCCN1C(=O)CCC(=O)NCCCOCCOCCOCCCNC(=O)CCCC[C@@H]1SC[C@@H]2NC(=O)N[C@@H]21)[C@@H](C)O)C(=O)N[C@H](C(=O)N[C@@H](CCCCN)C(=O)N[C@H](C(=O)O)C(C)C)[C@@H](C)O [PTEN_13] ({X1-Suc}-PFDEDQHTQITKV-OH) | 25 | 5.89 | 4 | 4 | -0.017 | 0.018 |  | 0.016 |  | -0.085 |  | -0.097 | 0.002 | 0.012 | 3.826 | -0.028 |  | 0.044 |  | -0.026 | specificity (in words) (human PDZome; compared with the three 11-mer peptides): slight increased specificity
CC[C@H](C)[C@H](NC(=O)[C@H](CCC(N)=O)NC(=O)[C@@H](NC(=O)[C@H](Cc1c[nH]cn1)NC(=O)[C@H](CCC(N)=O)NC(=O)[C@H](CC(=O)O)NC(=O)[C@H](CCC(=O)O)NC(=O)[C@H](CC(=O)O)NC(=O)CCC(=O)NCCCOCCOCCOCCCNC(=O)CCCC[C@@H]1SC[C@@H]2NC(=O)N[C@@H]21)[C@@H](C)O)C(=O)N[C@H](C(=O)N[C@@H](CCCNC(=N)N)C(=O)N[C@H](C(=O)O)C(C)C)[C@@H](C)O [PTEN_KR] ({X1-Suc}-DEDQHTQITRV-OH) | 38 |  | 9 | 9 |  | 0.06 | 3.655 |  |  | -0.04 | 3.655 | 0.043 | -0.031 | 0.02 | 3.655 | -0.107 | 3.655 | -0.033 | 3.655 | -0.027 | LogKD (CNKSR3-1): 3.655; LogKD (DVL2-1): 3.655
